According to US20240158412A1 (Faxian Therapeutics, LLC, priority 2021, published 2024):

Target: USP7 (Homo sapiens, UniProt Q93009)
Assay: biochemical
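Also: fluorescence intensity readout of USP7 enzymatic activity, reaction incubated 90 min at room temperature.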

Chain of USP7 (Q93009 whole entry): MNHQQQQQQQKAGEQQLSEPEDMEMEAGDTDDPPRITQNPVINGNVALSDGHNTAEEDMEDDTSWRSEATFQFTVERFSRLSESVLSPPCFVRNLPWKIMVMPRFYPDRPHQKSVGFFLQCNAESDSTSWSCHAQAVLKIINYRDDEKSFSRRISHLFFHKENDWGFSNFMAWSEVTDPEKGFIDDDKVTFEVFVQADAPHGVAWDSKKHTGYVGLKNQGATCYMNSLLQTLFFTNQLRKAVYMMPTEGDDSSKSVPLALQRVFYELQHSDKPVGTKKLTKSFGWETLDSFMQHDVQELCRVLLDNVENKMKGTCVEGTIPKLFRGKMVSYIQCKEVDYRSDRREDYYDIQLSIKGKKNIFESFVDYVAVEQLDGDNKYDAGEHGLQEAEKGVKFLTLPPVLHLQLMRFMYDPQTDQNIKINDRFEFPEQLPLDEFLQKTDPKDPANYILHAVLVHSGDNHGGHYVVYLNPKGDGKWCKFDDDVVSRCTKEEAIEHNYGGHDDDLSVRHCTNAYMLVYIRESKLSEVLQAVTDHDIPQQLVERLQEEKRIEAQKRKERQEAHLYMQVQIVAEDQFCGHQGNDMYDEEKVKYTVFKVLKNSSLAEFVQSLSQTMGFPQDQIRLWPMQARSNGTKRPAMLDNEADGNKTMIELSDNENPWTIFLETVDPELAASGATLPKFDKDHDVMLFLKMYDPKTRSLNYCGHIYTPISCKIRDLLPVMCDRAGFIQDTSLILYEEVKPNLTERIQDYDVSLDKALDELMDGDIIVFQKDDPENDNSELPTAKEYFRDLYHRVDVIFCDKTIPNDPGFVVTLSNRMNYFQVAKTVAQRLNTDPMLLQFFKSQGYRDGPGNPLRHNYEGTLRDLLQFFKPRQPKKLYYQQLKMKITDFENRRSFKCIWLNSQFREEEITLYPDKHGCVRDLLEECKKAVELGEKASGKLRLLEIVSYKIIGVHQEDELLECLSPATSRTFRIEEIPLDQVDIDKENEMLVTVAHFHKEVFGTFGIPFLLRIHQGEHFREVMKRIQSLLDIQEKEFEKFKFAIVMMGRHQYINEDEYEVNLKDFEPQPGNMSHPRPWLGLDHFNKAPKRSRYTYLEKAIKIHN

Row | IC50 [nM] | Structure (SMILES)
1 | 10 to 100 | O=C1COC(=O)N1Cc1cc2nccc(-c3cc(Cl)cc4c3N(C3CNC3)CCC4)c2s1 [Example 27, 3-[[7-[1-(azetidin-3-yl)-6-chloro-3,4-dihydro-2H-quinolin-8-yl]thieno[3,2-b]pyridin-2-yl]methyl]oxazolidine-2,4-dione]
2 | < 10 | O=c1ccn(C2CC(F)(F)C2)c(=O)n1Cc1cc2nccc(-c3cc(Cl)cc4c3N([C@@H]3CNC5(CCC5)C3)CCC4)c2s1 [Example 146, (S)-3-((7-(6-chloro-1-(5-azaspiro[3.4]octan-7-yl)-1,2,3,4-tetrahydroquinolin-8-yl)thieno[3,2-b]pyridin-2-yl)methyl)-1-(3,3-difluorocyclobutyl)pyrimidine-2,4(1H,3H)-dione]
3 | < 10 | Cc1ccnn(Cc2cc3nccc(-c4cc(C(F)(F)F)cc5c4N([C@@H]4CNC6(CCC6)C4)CCO5)c3s2)c1=O [Example 176b, (S)-2-((7-(4-(5-azaspiro[3.4]octan-7-yl)-7-(trifluoromethyl)-3,4-dihydro-2H-benzo[b][1,4]oxazin-5-yl)thieno[3,2-b]pyridin-2-yl)methyl)-4-methylpyridazin-3(2H)-one]
4 | 101 to 1000 | Cc1cnn(Cc2cc3nccc(-c4cc(C#N)cc5c4N(C4CNC6(CCC6)C4)CCC5)c3s2)c(=O)c1 (single isomer, unassigned) [Example 164b]
5 | 10 to 100 | O=C1CCC(=O)N1Cc1cc2nccc(-c3cc(Cl)cc4c3N(C3CN(C5CCC5)C3)CCC4)c2s1 [Example 3, 1-((7-(6-chloro-1-(1-cyclobutylazetidin-3-yl)-1,2,3,4-tetrahydroquinolin-8-yl)thieno[3,2-b]pyridin-2-yl)methyl)pyrrolidine-2,5-dione]
6 | < 10 | C[C@]1(CO)C[C@H](N2CCCc3cc(C#N)cc(-c4ccnc5cc(CN6C(=O)C7CC7C6=O)sc45)c32)CN1 (stereo partly drawn) [Example 206, 8-(2-((2,4-dioxo-3-azabicyclo[3.1.0]hexan-3-yl)methyl)thieno[3,2-b]pyridin-7-yl)-1-((3S,5R)-5-(hydroxymethyl)-5-methylpyrrolidin-3-yl)-1,2,3,4-tetrahydroquinoline-6-carbonitrile]
7 | 10 to 100 | O=C1CCC(=O)N1Cc1cc2nccc(-c3cc(Cl)cc4c3N([C@@H]3CNC5(CCC5)C3)C[C@@H]3C[C@H]43)c2s1 [Example 165a, 1-((7-((1aR,7bS)-6-chloro-3-((S)-5-azaspiro[3.4]octan-7-yl)-1a,2,3,7b-tetrahydro-1H-cyclopropa[c]quinolin-4-yl)thieno[3,2-b]pyridin-2-yl)methyl)pyrrolidine-2,5-dione]
8 | < 10 | O=C1CCC(=O)N1Cc1cc2nccc(-c3cc(Cl)cc4c3N([C@H]3CCNC3)C[C@H]3C[C@@H]43)c2s1 (single isomer, unassigned) [Example 113d]
9 | 10 to 100 | CC(C)(C)c1cnn(Cc2cc3nccc(-c4cc(Cl)cc5c4N(C4CNC(CO)(CO)C4)CCO5)c3s2)c(=O)c1 (stereo in doubt) [Example 213a, (R)-2-((7-(4-(5,5-bis(hydroxymethyl)pyrrolidin-3-yl)-7-chloro-3,4-dihydro-2H-benzo[b][1,4]oxazin-5-yl)thieno[3,2-b]pyridin-2-yl)methyl)-5-(tert-butyl)pyridazin-3(2H)-one]
10 | 10 to 100 | O=C1CCC(=O)N1Cc1cc2nccc(-c3cc(Cl)cc4c3N(C3CNC3)CCO4)c2s1 [Example 54, 1-[[7-[4-(azetidin-3-yl)-7-chloro-2,3-dihydro-1,4-benzoxazin-5-yl]thieno[3,2-b]pyridin-2-yl]methyl]pyrrolidine-2,5-dione]
11 | < 10 | COCCn1ccc(=O)n(Cc2cc3nccc(-c4cc(Cl)cc5c4N([C@@H]4CCNC4)CCC5)c3s2)c1=O [Example 100, (R)-3-((7-(6-chloro-1-(pyrrolidin-3-yl)-1,2,3,4-tetrahydroquinolin-8-yl)thieno[3,2-b]pyridin-2-yl)methyl)-1-(2-methoxyethyl)pyrimidine-2,4(1H,3H)-dione]
12 | < 10 | Cn1ccc(=O)n(Cc2cc3nccc(-c4cc(C#N)cc5c4N([C@H]4CCNC4)CCC5)c3s2)c1=O [Example 87, (S)-8-(2-((3-methyl-2,6-dioxo-2,3-dihydropyrimidin-1(6H)-yl)methyl)thieno[3,2-b]pyridin-7-yl)-1-(pyrrolidin-3-yl)-1,2,3,4-tetrahydroquinoline-6-carbonitrile]
13 | < 10 | O=C1CCC(=O)N1Cc1cc2nccc(-c3cc(Cl)cc4c3N([C@@H]3CN(CCF)C5(CCC5)C3)CCC4)c2s1 [Example 142, (S)-1-((7-(6-chloro-1-(5-(2-fluoroethyl)-5-azaspiro[3.4]octan-7-yl)-1,2,3,4-tetrahydroquinolin-8-yl)thieno[3,2-b]pyridin-2-yl)methyl)pyrrolidine-2,5-dione]
14 | < 10 | CC(F)(F)CCn1ccc(=O)n(Cc2cc3nccc(-c4cc(Cl)cc5c4N([C@H]4CCNC4)CCC5)c3s2)c1=O [Example 104, (S)-3-((7-(6-chloro-1-(pyrrolidin-3-yl)-1,2,3,4-tetrahydroquinolin-8-yl)thieno[3,2-b]pyridin-2-yl)methyl)-1-(3,3-difluorobutyl)pyrimidine-2,4(1H,3H)-dione]
15 | 101 to 1000 | Cc1cnn(Cc2cc3nccc(-c4cc(C#N)cc5c4N(C4CNC(C)(C)C4)CCC5)c3s2)c(=O)c1 (single isomer, unassigned) [Example 120b]
16 | 10 to 100 | O=C1CCC(=O)N1Cc1cc2nccc(-c3cc(Cl)cc4c3N([C@@H]3CCC5(CCCN5)C3)CCC4)c2s1 (single isomer, unassigned) [Example 179a]

Row | IC50 [nM] | Structure (SMILES)
17 | < 10 | N#Cc1cc2c(c(-c3ccnc4cc(Cn5c(=O)ccn(C6CC(F)(F)C6)c5=O)sc34)c1)N([C@@H]1CN[C@@H](CO)C1)CCC2 [Example 191, 8-(2-((3-(3,3-difluorocyclobutyl)-2,6-dioxo-2,3-dihydropyrimidin-1(6H)-yl)methyl)thieno[3,2-b]pyridin-7-yl)-1-((3S,5R)-5-(hydroxymethyl)pyrrolidin-3-yl)-1,2,3,4-tetrahydroquinoline-6-carbonitrile]
18 | > 1000 | O=C1CCC(=O)N1Cc1cc2nccc(-c3cc(Cl)cc4c3N([C@H]3C[C@@H](O)C3)CCC4)c2s1 [Example 41, Cis-1-[[7-[6-chloro-1-(3-hydroxycyclobutyl)-3,4-dihydro-2H-quinolin-8-yl]thieno[3,2-b]pyridin-2-yl]methyl]pyrrolidine-2,5-dione]
19 | 101 to 1000 | O=C1CCC(=O)N1Cc1cc2nccc(-c3cc(C(F)(F)F)cc4c3N(C3CNC5(CCC5)C3)CCO4)c2s1 (single isomer, unassigned) [Example 175a]
20 | < 10 | N#Cc1cc2c(c(-c3ccnc4cc(Cn5c(=O)ccn(C6CC6)c5=O)sc34)c1)N([C@H]1CCNC1)CCC2 [Example 88, (S)-8-(2-((3-cyclopropyl-2,6-dioxo-2,3-dihydropyrimidin-1(6H)-yl)methyl)thieno[3,2-b]pyridin-7-yl)-1-(pyrrolidin-3-yl)-1,2,3,4-tetrahydroquinoline-6-carbonitrile]
21 | < 10 | O=c1ccn(C(F)F)c(=O)n1Cc1cc2nccc(-c3cc(Cl)cc4c3N([C@@H]3CNC5(CCC5)C3)CCC4)c2s1 [Example 149, (S)-3-((7-(6-chloro-1-(5-azaspiro[3.4]octan-7-yl)-1,2,3,4-tetrahydroquinolin-8-yl)thieno[3,2-b]pyridin-2-yl)methyl)-1-(difluoromethyl)pyrimidine-2,4(1H,3H)-dione]
22 | < 10 | Cc1cnn(Cc2cc3nccc(-c4cc(Cl)cc5c4N([C@@H]4CNC6(CCC6)C4)CCC5)c3s2)c(=O)c1 [Example 153, (S)-2-((7-(6-chloro-1-(5-azaspiro[3.4]octan-7-yl)-1,2,3,4-tetrahydroquinolin-8-yl)thieno[3,2-b]pyridin-2-yl)methyl)-5-methylpyridazin-3(2H)-one]
23 | 10 to 100 | CN1CCC(N2CCCc3cc(Cl)cc(-c4ccnc5cc(CN6C(=O)CCC6=O)sc45)c32)CC1 [Example 46, 1-[[7-[6-chloro-1-(1-methyl-4-piperidyl)-3,4-dihydro-2H-quinolin-8-yl]thieno[3,2-b]pyridin-2-yl]methyl]pyrrolidine-2,5-dione]
24 | 101 to 1000 | CO[C@H]1CNC[C@@H]1N1CCCc2cc(Cl)cc(-c3ccnc4cc(CN5C(=O)CCC5=O)sc34)c21 (single isomer, unassigned) [Example 97a]
25 | 10 to 100 | O=C1CCC(=O)N1Cc1cc2nccc(-c3cc(Cl)cc4c3N([C@H]3CNC5(CCC5)C3)CCC4)c2s1 (single isomer, unassigned) [Example 139a]
26 | < 10 | O=c1cc(C2CC2)cnn1Cc1cc2nccc(-c3cc(Cl)cc4c3N([C@@H]3CN[C@H](CO)C3)CCC4)c2s1 [Example 187, 2-((7-(6-chloro-1-((3S,5S)-5-(hydroxymethyl)pyrrolidin-3-yl)-1,2,3,4-tetrahydroquinolin-8-yl)thieno[3,2-b]pyridin-2-yl)methyl)-5-cyclopropylpyridazin-3(2H)-one]
27 | < 10 | CC1(C)CC(N2CCOc3cc(C#N)cc(-c4ccnc5cc(Cn6c(=O)ccn(CC(F)(F)F)c6=O)sc45)c32)CN1 (single isomer, unassigned) [Example 133a]
28 | < 10 | O=C1CCC(=O)N1Cc1cc2nccc(-c3cc(Cl)cc4c3N([C@@H]3CNC5(CCC5)C3)CCC4)c2s1 (single isomer, unassigned) [Example 139b]
29 | 101 to 1000 | Cc1ccnn(Cc2cc3nccc(-c4cc(C(F)(F)F)cc5c4N(C4CNC6(CCC6)C4)CCO5)c3s2)c1=O (single isomer, unassigned) [Example 176a]
30 | < 10 | CN1CC(=O)N(Cc2cc3nccc(-c4cc(Cl)cc5c4N([C@H]4CCNC4)CCC5)c3s2)C1=O [Example 74, (S)-3-((7-(6-chloro-1-(pyrrolidin-3-yl)-1,2,3,4-tetrahydroquinolin-8-yl)thieno[3,2-b]pyridin-2-yl)methyl)-1-methylimidazolidine-2,4-dione]
31 | 10 to 100 | O=C1CCC(=O)N1Cc1cc2nccc(-c3cc(Cl)cc4c3N(C3CNC3)CCC43CC3)c2s1 [Example 48, 1-((7-(1′-(azetidin-3-yl)-6′-chloro-2′,3′-dihydro-1′H-spiro[cyclopropane-1,4′-quinolin]-8′-yl)thieno[3,2-b]pyridin-2-yl)methyl)pyrrolidine-2,5-dione]
32 | < 10 | O=C1CCC(=O)N1Cc1cc2nccc(-c3cc(C(F)(F)F)cc4c3N(C3CNC5(CCC5)C3)CCO4)c2s1 (single isomer, unassigned) [Example 175b]
